# According to patent US11474097B2, “Method of identifying a compound which affects the multienzyme metabolic assembly of glucose metabolism and its association with cell cycle progression in cancer cells” (UNIVERSITY OF MARYLAND, BALTIMORE COUNTY, priority 2018, dated 2022):
# Structures can show the parent of a compound that is named as a salt.
# Legend:
# Type in all cases: cell-based, human
# [1] = tested on: PFK1-mEGFP clustering in HeLa-T-PFK1G cells; experiment: qHTS PFK1-mEGFP clustering assay with the LOKI library; conditions: for Curve class: LOKI screen; for PFK1-mEGFP clustering when the assay was repeated: repeat of the LOKI assay, FIGS. 8A-8C
# Protocol: HeLa-T-PFK1G cells were plated in 1536-well black, clear bottom, low base microwell plates (Aurora Microplates, Inc.) at a density of 400 cells/well in DMEM supplemented with 10% dialyzed FBS, 1% Pen-Strep, and 1 μg/mL doxycycline. The cells were incubated at 37° C., 5% CO2, and 95% humidity for 16 hours. A qHTS assay was scaled to 4 μL volumes in 1536-well format in a semi-automated manner.
# Second, the qHTS assay was carried out with the LOKI library (10 mM, 11-point 1:3 intra-plate titration). Again, 23 nL of compounds were transferred by a pintool (Kalypsys) in the final concentration range of 974 pM to 57.5 μM along with DMSO. […] The cells were then incubated overnight with small molecules. Approximately 24 hours later, the cells were fixed with 3.5% paraformaldehyde and nuclei were stained using a 1:1000 dilution of Hoechst dye for ˜20 minutes. Cells were washed and imaged with an INCell Analyzer 2000 or INCell Analyzer 2200 (GE Healthcare Life Sciences) as described above.
# Images were processed in the GE Workstation software and analyzed with a multitarget analysis of fluorescence. Top-hat segmentation of the DAPI channel was used to identify nuclei with a minimum area of 100 μm^2 and sensitivity of 40 settings. Multiscale top-hat segmentation of the FITC channel was used to identify cells with a characteristic area of 200 μm^2 and sensitivity of 70 settings. This allowed for the identification of fluorescent cells from the background or dead cells. Following cell segmentation, the same FITC channel was analyzed with multiscale top-hat segmentation to identify PFK1-mEGFP clusters with a size range of 0.2-2 μm^2, number scales of 1, process parameters of 1 pixel, sensitivity of 40, and inclusions in the cytoplasm. A filter of object area, that is, the area of PFK1-mEGFP clusters, below 30 μm^2 and an advanced sensitivity range of 1.5, was also applied. A decision tree thresholding was developed to identify cells with PFK1 clusters with three nodes. The start node required a cell intensity above 110 GL, the second node required a PFK1 cluster count above 1, and the third node required the total area of the PFK1 cluster above 5 μm^2. Ultimately, this allowed for the identification of cluster-positive cells over non-clustering cells. The total number of cells with a total area of PFK1 clusters above 5 μm^2 (most stringent parameter) and the total number of cells with any PFK1 clusters were calculated with the above algorithm and normalized by plate to the 57.5 μM kenpaullone intra-plate control as previously described (Inglese et al., 2006). Assay effectiveness including S:N (the signal to noise ratio) and Z′ (the index of assay quality (Zhang et al., 1999)) were calculated for both parameters using the same respective control. Both parameters were normalized to the average signal of DMSO (vehicle)-treated wells as a zero percent neutral control and the average signal of 57.5 μM kenpaullone-treated wells as maximum PFK1-mEGFP clustering. Cell count based on the number of nuclei was used as a parameter of cytotoxicity, which was also normalized to the average signal of DMSO-treated wells as a zero percent neutral control and the average signal of 57.5 μM […]-treated wells as maximum PFK1-mEGFP clustering. The respective normalized data from each assay plate was corrected using DMSO only treated assay plates at the beginning and end of each library screen. In-house software (http://ncgc.nih.gov/pub/openhts/curvefit/) was used to fit the resulting intra-plate titration data to the standard Hill equation and concentration-response curves were classified by a titration curve as previously described (Southall et al.). Curve fits assignments of class 1.1, 1.2, 2.1 and 2.2s were considered active (i.e., promotion of the PFK1-mEGFP clusters) and visually confirmed.
# [2] = tested on: PFK1-mEGFP clustering in HeLa-T-PFK1G cells; experiment: High-resolution fluorescence microscopy of PFK1-mEGFP clustering
# Protocol: A day before imaging, HeLa-T-PFK1G cells in RPMI1640 supplemented with 10% dialyzed FBS, 200 ug/ml G418 sulfate and 100 ug/ml hygromycin B, were plated in the presence of 1 μg/mL doxycycline to induce the expression of PFK1-mEGFP. On the day of imaging, the cells were washed three times with an imaging solution (20 mM HEPES (pH 7.4), 135 mM NaCl, 5 mM KCl, 1 mM MgCl2, 1.8 mM CaCl2) and 5.6 mM glucose) and allowed to adjust to ambient temperature for ˜45-60 minutes prior to small molecule treatments. Meanwhile, transiently transfected HeLa cells were imaged after being washed with the imaging solution after ˜24 hours following transfection. The cells were then treated with small molecules and incubated at 37° C. for the given time. All samples were imaged at ambient temperature (˜25° C.) with a 60×1.45 NA objective lens (Nikon CFI Plan Apo TIRF) using a Photometrics CoolSnap EZ monochrome CCD camera on a Nikon Eclipse Ti-inverted C2 confocal microscope.
# Epifluorescence imaging was carried out using a set of Z488/10-FC cleanup, HC TIRF Dichroic and 525/50-HC emission filter from Chroma Technology. Images were acquired using NIS Elements (Nikon) and images were analyzed using an ImageJ freeware (National Institutes of Health).
# Next, the 8 compounds were assessed for their ability to induce PFK1-mEGFP clustering under high-resolution fluorescence microscopy. HeLa-T-PFK1G cells were treated with 57.5 μM for 5 hours (FIGS. 2A and 2B) and 10 μM for 25 hours (FIGS. 2C and 2D). […] Quantitatively, SU9516 induced medium- and large-sized PFK1-mEGFP clustering in 26.6±12% of the cells at 57.5 μM for 5 hours, and in 40.0±16% of cells at 10 μM for 25 hours (see, e.g., FIGS. 2B and 2D, respectively).
# [3] = tested on: cell cycle progression of HeLa-T-PFK1G cells; experiment: Cell cycle analysis by propidium iodide staining and flow cytometry; conditions: 10 μM, 24 hours
# Protocol: FIG. 7A illustrates the effect of SU9516 on the cell cycle progression of HeLa-T-PFK1G cells. Cells received no small molecules or were treated with DMSO or 10 uM SU9516 and incubated for 24 hours. Then, cells were assessed for cell cycle progression by propidium iodide staining. The changes of the average percentage of cells in each cell cycle following incubation with an indicated compound are shown. Error bars represent the standard deviations of at least three trials and statistical significance was determined using student's two-tailed t test. HeLa-T-PFK1G cells were plated in 6-well plates for a confluency of 70-90% in RPMI1640 supplemented with 10% dialyzed FBS in the presence of 1 ug/mL doxycycline. The following day, the cells were treated with SU9516 or DMSO for 24 hours. The cells were then harvested and analyzed for the cell cycle progression as previously described (Crowley et al., 2016). Briefly, hundreds of thousands of cells were removed from 6-well plates using trypsin, washed with 1×PBS (pH 7.4), resuspended in ice-cold PBS and fixed with ice-cold methanol for 20 minutes at 4° C. The cells were then washed and resuspended in the cell cycle buffer, which contains 30 ug/mL propidium iodide and 100 μg/mL RNase A (Thermo Cat # EN0531) in 1×PBS (pH 7.4). After being incubated for at least 45 minutes, flow cytometry was performed with a CyAn ADP (Beckman Coulter) running Summit V 4.00, equipped with a 488 nm laser line and 530/40 and 613/20 emission filters. Using FlowJo (FlowJo, LLC), cell populations were gated based on the expression of PFK1-mEGFP in cells as well as their size and granularity. The cell cycle progression was then assessed by the Dean-Jett-Fox analysis using Cell Cycle platform available in FlowJo (Fox, 1980).
# [4] = tested on: transiently expressed PFK1-mEGFP in HeLa cells; experiment: PFK1-mEGFP clustering in transiently transfected wild-type HeLa cells; conditions: 57.5 μM, 5 hours
# Protocol: A day before transient transfection, wild-type HeLa cells were plated on either glass-bottomed 35 mm petri dishes (MatTek) or 8-well chambers (LabTek) in RPMI 1640 supplemented with 10% dialyzed FBS without antibiotics. The following day, HeLa cells were transfected with PFK1-mEGFP using Lipofectamine 2000 (Invitrogen Cat#11668019) in Opti-MEM I (ThermoFisher Cat#11058-021) and allowed to incubate in a HeraCell CO2 incubator (37° C., 5% CO2, and 95% humidity). Approximately 5 hours later, the medium was exchanged for fresh growth medium and incubated overnight in the CO2 incubator.
# A day before imaging, HeLa-T-PFK1G cells in RPMI1640 supplemented with 10% dialyzed FBS, 200 ug/ml G418 sulfate and 100 ug/ml hygromycin B, were plated in the presence of 1 μg/mL doxycycline to induce the expression of PFK1-mEGFP. On the day of imaging, the cells were washed three times with an imaging solution (20 mM HEPES (pH 7.4), 135 mM NaCl, 5 mM KCl, 1 mM MgCl2, 1.8 mM CaCl2) and 5.6 mM glucose) and allowed to adjust to ambient temperature for ˜45-60 minutes prior to small molecule treatments. […]
# As a control, PFK1-mEGFP was transiently transfected into wild-type HeLa cells and treated with SU9516. After 5 hours of treatment with 57.5 μM of SU9516, the promotion of medium- and large-sized clusters from small-sized clusters at single-cell levels were monitored (FIG. 4).
# [5] = tested on: PFK1-mEGFP clustering in HeLa-T-PFK1G cells; experiment: Resveratrol-induced clustering of PFK1-mEGFP (positive control, assay development); conditions: 200-250 μM, three hours
# Protocol: Cells were treated with 200-250 μM resveratrol for three hours. Scale bar, 10 μm.
# [6] = Table 5, CDK inhibitors that did not induce PFK1-mEGFP clustering
# [7] = Table 4, inhibitors of the off-targets of SU9516
# [8] = 10 μM, 24 hr, HeLa-T-PFK1G cells
smiles,measurement,setting,value
CN1CCC(c2c(O)cc(O)c3c(=O)cc(-c4ccccc4Cl)oc23)C(O)C1 (stereo in doubt) [NCGC00250401-01],Curve class,[1]; [6],4
Cn1cnc2c(NCc3ccccc3)nc(NCCO)nc21 [NCGC00015763-01],Curve class,[1]; [6],4
O=C(NC1CCNCC1)c1[nH]ncc1NC(=O)c1c(Cl)cccc1Cl [NCGC00263091-01],Curve class,[1]; [6],−1.3
"CC(=O)c1c(C)c2cnc(Nc3ccc(N4CCNCC4)cn3)nc2n(C2CCCC2)c1=O [NCGC00263129-01, Palbociclib]",Curve class,[1]; [7],2.1
Cn1c(=O)c(F)c(Nc2ccc(I)cc2F)c2c(=O)n(C[C@@H](O)CO)cnc21 [NCGC00263187-01],Curve class,[1]; [6],−2.4
CCc1ccc(NC(=O)c2[nH]c(C)c(C(C)=O)c2C)cc1S(=O)(=O)Nc1cccc(C#N)c1 [NCGC00345632-01],Curve class,[1]; [6],−2.1
"CCS(=O)(=O)Nc1ccc2c(c1)/C(=C(/Nc1ccc(CN3CCCCC3)cc1)c1ccccc1)C(=O)N2 [NCGC00346542-01, Hesperadin]",Curve class,[1]; [7],2.1
"CC(C)c1cnn2c(NCc3ccccc3)cc(NCCCCCCN)nc12 [NCGC00346553-01, BS-181]",Curve class,[1]; [7],2.1
same,PFK1-mEGFP clustering when the assay was repeated,[1],did not promote PFK1-mEGFP clustering
"CC(=O)NCC(=O)N1[C@H]2CC[C@H]1c1cc(Nc3ncc(C(F)(F)F)c(NC4CCC4)n3)ccc12 [NCGC00346652-01, PF-03814735]",Curve class,[1]; [7],2.1
same,PFK1-mEGFP clustering when the assay was repeated,[1],induced PFK1-mEGFP clustering
CC(O)(C#Cc1ccc2c(c1)N(c1nc(N)ncc1Cl)CC2)c1nccs1 (stereo not drawn) [NCGC00346747-02],Curve class,"[1]; PFK1-mEGFP clustering vs log compound concentration, Table 3 hits",2.1
"CC(=O)OC1C(C)OC(Oc2c(-c3ccc(O)cc3)oc3cc(O)cc(O)c3c2=O)C(O)C1OC(C)=O (stereo not drawn) [NCGC00346893-01, SL-0101-1]",Curve class,[1]; [7],2.1
same,Curve class,[1]; [6],4
same,PFK1-mEGFP clustering when the assay was repeated,[1],did not promote PFK1-mEGFP clustering
C=CCc1cccc(/C=N/NC(=O)CN2CCN(Cc3ccccc3)CC2)c1O [PAC-1],cell morphology observed,[2]; [8],vacuole-type artifact
"COc1ccc2c(c1)/C(=C/c1cnc[nH]1)C(=O)N2 [SU9516, 3-[1-(3H-Imidazol-4-yl)-meth-(Z)-ylidene]-5-methoxy-1,3-dihydro-indol-2-one]",percent of cells with medium- and large-sized PFK1-mEGFP clustering,[2]; 10 μM for 25 hours,40.0±16%
same,percent of cells with medium- and large-sized PFK1-mEGFP clustering,[2]; 57.5 μM for 5 hours,26.6±12%
same,ability to induce PFK1-mEGFP clustering under high-resolution fluorescence microscopy,[2]; 57.5 μM for 5 hours and 10 μM for 25 hours,capable of inducing PFK1-mEGFP clusters
same,EC50,"[2]; Homo sapiens, titration for 25 hours, HeLa-T-PFK1G cells, read-out: EC50 with respect to PFK1-mEGFP clustering",6.8 µM
same,population of cells in the G2 phase,[3]; 18.9%±[…] without compound,45.6%±1.9%
same,population of cells in the S phase,[3]; 21.5%±7.2% without compound,4.2%±2.4%
same,population of cells in the G1 phase,"[3]; 54.7%±5.7% without compound, no significant change",48.4%±2.7%
same,promotion of medium- and large-sized PFK1-mEGFP clusters,[4],capable of promoting PFK1-mEGFP clusters
"Clc1ccc(C(c2ccc(Cl)cc2)n2cc[n+](CC(OCc3ccc(Cl)cc3Cl)c3ccc(Cl)cc3Cl)c2)cc1 (stereo not drawn) [calmidazolium chloride, Calmidazolium chloride]",cell morphology observed,[2]; [8],vacuole-type artifact
"CN1CCC[C@@H]1CCO[C@](C)(c1ccccc1)c1ccc(Cl)cc1 [clemastine fumarate, Clemastine fumarate]",cell morphology observed,"[2]; 57.5 μM, 6 hr, HeLa-T-PFK1G cells",protein localization and cell death
Oc1ccc(C=Cc2cc(O)cc(O)c2)cc1 [resveratrol],percent of cells exhibiting medium- or large-sized clusters in the cytoplasm,[5],80-90%
